Measurements published in patent publication US20240025919A1, “AZA-TETRACYCLIC OXAZEPINE COMPOUNDS AND USES THEREOF” (Genentech, Inc., priority 2022, published 2024).
Where two headings read alike, the source gives them in different places.

Legend:
[1] = system: H1975 (KRAS wild type human lung adenocarcinoma cell line); test: KRAS 3D-Cell Proliferation Assay, H1975 (CellTiter-Glo 3D, 7 days); type: cell-based; settings: H1975 3D culture, read-out: Prolif H1975 3D ATP IC50
Method: (§1) Example 503: KRAS 3D-Cell Proliferation Assays. Cellular potencies of compounds are assessed by evaluating inhibition of proliferation in 3D cultures of homozygous mutant KRAS G12D human pancreatic cell lines (AsPC-1 and HPAC) as compared to a KRAS wild type human lung adenocarcinoma cell line (PC-9 and/or H1975). Cells are seeded into 384-well black round-bottom, ultra-low attachment assay plates in 50 uL cell growth medium (RPMI-1640 with 10% fetal bovine serum and 2 mM L-glutamine). After overnight incubation at 37° C. and 5% CO2, compounds solubilized in DMSO are added as dilution series to the wells in a total volume of 150 nL (0.3% DMSO final). The cells are incubated for 7 days at 37° C. and 5% CO2. Cell proliferation is quantitated by addition of 40 uL/well of CellTiter-GloO 3D (Promega), and the well contents are mixed 20× at high speed using liquid handling automation workstation (Bravo with 384-well head) and centrifuged at 1500 rpm for 2 minutes to eliminate bubbles. This reagent in combination with mechanical disruption releases the cellular ATP to promote activity in a luciferase-based enzyme/substrate chemiluminescent detection system. After a 30-minute incubation under ambient conditions with shaking and an additional 10 minutes without shaking, the luminescence is read on a plate reader (e.g. EnVision [PerkinElmer]). The results are normalized to percent inhibition based on the following control samples: DMSO (0% inhibition) and 1 uM staurosporine (100% inhibition). The normalized luminescence results are plotted against compound concentration, and the data are fit to a 4-parameter Hill equation to determine the IC50 values.

[2] = target: T1, KRAS WT (Homo sapiens (Human), UniProt P01116); test: KRAS WT Biochemical Assay, BODIPY-GDP Exchange TR-FRET (Example 502; 0.06 nM KRAS WT, 15 nM GDP, 300 nM SOS1, 120-minute incubation); settings: read-out: KRas HTRF IC50
Outline: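 Biotin-tagged recombinant KRAS WT (0.06 nM) preloaded with 15 nM GDP and Tb-streptavidin, 10 min RT, then exchange started with 300 nM SOS1 plus 300 nM BODIPY-GDP in HEPES pH 7.5 buffer with MgCl2. TR-FRET 520/490 ratio read after 120 min; normalized to DMSO and full-inhibition control; IC50 from 4-parameter fit.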

[3] = target: KRAS G12D (Homo sapiens (Human), UniProt P01116, G12D); test: KRAS G12D LoEnz Biochemical Assay, BODIPY-GDP Exchange TR-FRET (SOS1-mediated nucleotide exchange); settings: read-out: KRas (G12D) GDP HTRF IC50
[4] = system: HPAC (homozygous mutant KRAS G12D human pancreatic cell line); test: KRAS 3D-Cell Proliferation Assay, HPAC (CellTiter-Glo 3D, 7 days); type: cell-based; settings: HPAC 3D culture, read-out: Prolif HPAC 3D ATP IC50
Method: as §1

[5] = target: T1, KRAS WT; test: KRAS WT Biochemical Assay, BODIPY-GDP Exchange TR-FRET (Example 501; 3 nM KRAS WT, 3 nM SOS1, 60-minute incubation); settings: read-out: KRas HTRF IC50
Outline: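 SOS1-mediated exchange assay: 3 nM biotin-KRAS WT with terbium-streptavidin, started with 3 nM SOS1 and 300 nM BODIPY-GDP, HEPES pH 7.5 with MgCl2. TR-FRET (520/490 nm) read after 60 min; normalized to DMSO and full-inhibition control, IC50 from 4-parameter Hill fit.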

Chain of KRAS G12D (P01116-2 other isoform, or with tags, fused parts or gaps G12D): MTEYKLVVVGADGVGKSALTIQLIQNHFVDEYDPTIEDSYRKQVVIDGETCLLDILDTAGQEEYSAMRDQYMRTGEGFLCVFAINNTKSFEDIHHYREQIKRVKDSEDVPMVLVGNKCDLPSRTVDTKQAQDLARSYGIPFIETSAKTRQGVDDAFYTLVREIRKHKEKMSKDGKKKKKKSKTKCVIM
T1 sequence (P01116-2 other isoform, or with tags, fused parts or gaps): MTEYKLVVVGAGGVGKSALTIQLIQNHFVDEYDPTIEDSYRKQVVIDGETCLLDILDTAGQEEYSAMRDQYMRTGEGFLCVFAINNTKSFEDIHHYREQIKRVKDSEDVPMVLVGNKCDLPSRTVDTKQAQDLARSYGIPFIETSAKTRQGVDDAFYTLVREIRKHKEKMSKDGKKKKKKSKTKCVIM

SMILES	IC50 ([1]; Homo sapiens, NCI-H1975, 168 h) [nM]	IC50 [2] [nM]	IC50 [3] [nM]	IC50 ([4]; Homo sapiens, HPAC, 168 h) [nM]	IC50 [4] [nM]	IC50 [1] [nM]	IC50 [5] [nM]
Cc1c(F)c(N)cc(-c2nc3c4c(nc(OC[C@@H]5COC[C@H]6CCCN65)nc4c2F)N2C[C@H]4CC[C@H](N4)[C@H]2[C@H](C)O3)c1C(F)(F)F (single isomer, unassigned) [121 (isomer 2)]	533	49.3	0.27	17.5			
Cc1c(F)c(N)cc(-c2nc3c4c(nc(OC[C@@]56CCC[C@@H]5N(C)CCC6)nc4c2F)N2C[C@H]4CC[C@H](N4)[C@H]2[C@H](C)O3)c1C(F)(F)F (single isomer, unassigned) [126 (isomer 2)]	1770	8.08	0.09	5.15			
Cc1c(F)c(N)cc(-c2nc3c4c(nc(OC[C@@]56CCC[C@H]5N(C)CCC6)nc4c2F)N2C[C@H]4CC[C@H](N4)[C@H]2[C@H](C)O3)c1C(F)(F)F (single isomer, unassigned) [126 (isomer 3)]	1430	6.31	0.09	3.28			
Cc1c(F)c(N)cc(-c2nc3c4c(nc(OC[C@]56CCC[C@H]5N(C)CCC6)nc4c2F)N2C[C@H]4CC[C@H](N4)[C@H]2[C@H](C)O3)c1C(F)(F)F (single isomer, unassigned) [126 (isomer 4)]	2250	90.3	0.37	24.9			
Cc1c(F)c(N)cc(-c2nc3c4c(nc(OC[C@@]56CCCN5[C@@H](C(F)F)CC6)nc4c2F)N2C[C@H]4CC[C@H](N4)[C@H]2[C@H](C)O3)c1C(F)(F)F (single isomer, unassigned) [130 (isomer 1)]	2830	460	2.26		44.7		
Cc1c(F)c(N)cc(-c2nc3c4c(nc(OC[C@@]56CCCN5[C@@H](C(F)F)CC6)nc4c2F)N2C[C@H]4CC[C@H](N4)[C@H]2[C@H](C)O3)c1C(F)(F)F (single isomer, unassigned) [130 (isomer 2)]		174	0.92		15.8	2900	
Cc1c(F)c(N)cc(-c2nc3c4c(nc(OC[C@H]5CC[C@@H]6CN(C)C(=O)CN56)nc4c2F)N2C[C@H]4CC[C@H](N4)[C@H]2[C@H](C)O3)c1C(F)(F)F (single isomer, unassigned) [131 (isomer 1)]		2530	13.9		1430	20000	
Cc1c(F)c(N)cc(-c2nc3c4c(nc(OC[C@H]5CC[C@@H]6CN(C)C(=O)CN56)nc4c2F)N2C[C@H]4CC[C@H](N4)[C@H]2[C@H](C)O3)c1C(F)(F)F (single isomer, unassigned) [131 (isomer 2)]		293	1.31		342	20000	
Cc1c(F)c(N)cc(-c2nc3c4c(nc(OC[C@H]5CC[C@@H]6CN(C)C(=O)CN56)nc4c2F)N2C[C@H]4CC[C@H](N4)[C@H]2[C@H](C)O3)c1C(F)(F)F (single isomer, unassigned) [131 (isomer 3)]		249	2.07		77.4	8850	
Cc1c(F)c(N)cc(-c2nc3c4c(nc(OC[C@@H]5CCC6C[C@@H](C(=O)N(C)C)CCN65)nc4c2F)N2C[C@H]4CC[C@H](N4)[C@H]2[C@H](C)O3)c1C(F)(F)F (single isomer, unassigned) [133 (isomer 2)]	1600	14.4	0.15	22.4			
Cc1c(F)c(N)cc(-c2nc3c4c(nc(OCC56CCCN5CCN(C)C6=O)nc4c2F)N2C[C@H]4CC[C@H](N4)[C@H]2[C@H](C)O3)c1C(F)(F)F (single isomer, unassigned) [137 (isomer 2)]	20000	454	2.34	193			
Cc1c(F)c(N)cc(-c2nc3c4c(nc(OC[C@@]56CCCN5C[C@H](F)C6)nc4c2F)N2CCN[C@@H](C)[C@H]2[C@H](C)O3)c1C(F)(F)F (single isomer, unassigned) [234 (isomer 1)]	8570		1330	2000			23300
Cc1c(F)c(N)cc(-c2nc3c4c(nc(OC[C@@]56CCCN5C[C@H](F)C6)nc4c2F)N2CCN[C@@H](C)[C@H]2[C@@H](C)O3)c1C(F)(F)F (single isomer, unassigned) [234 (isomer 2)]	9750		209	2000			513
Cc1c(F)c(N)cc(-c2nc3c4c(nc(OC[C@@]56CCCN5C[C@H](F)C6)nc4c2F)N2CCN[C@H](C)[C@@H]2[C@H](C)O3)c1C(F)(F)F (single isomer, unassigned) [234 (isomer 3)]	16600		4810	2000			4570
Cc1c(F)c(N)cc(-c2nc3c4c(nc(OC[C@@]56CCCN5C[C@H](F)C6)nc4c2F)N2CCN[C@H](C)[C@@H]2[C@@H](C)O3)c1C(F)(F)F (single isomer, unassigned) [234 (isomer 4)]	8500		589	2000			510
Cc1c(F)c(N)cc(-c2nc3c4c(nc(OC[C@@]56CCCN5C[C@H](F)C6)nc4c2F)N2C[C@H]4CC[C@H](N4)[C@H]2[C@@H](C(F)F)O3)c1C(F)(F)F (single isomer, unassigned) [238 (isomer 2)]	20000		13000	2000			4800
Cc1nc(N)cc(-c2nc3c4c(nc(OC[C@H]5N(C)C[C@]56CC6(F)F)nc4c2F)N2C[C@H]4CC[C@H](N4)[C@H]2[C@H](C(F)(F)F)O3)c1C(F)(F)F (single isomer, unassigned) [262 (isomer 1)]	20000		31.9	475			668
Cc1nc(N)cc(-c2nc3c4c(nc(OCC5N(C)C[C@]56CC6(F)F)nc4c2F)N2C[C@H]4CC[C@H](N4)[C@H]2[C@H](C(F)(F)F)O3)c1C(F)(F)F (single isomer, unassigned) [262 (isomer 3)]	20000		41.1	971			1080
Cc1nc(N)cc(-c2nc3c4c(nc(OCC5N(C)CC56CC6(F)F)nc4c2F)N2C[C@H]4CC[C@H](N4)[C@H]2[C@H](C(F)(F)F)O3)c1C(F)(F)F (single isomer, unassigned) [262 (isomer 4)]	4380		1.14	43.4			35.1
Cc1c(F)c(N)cc(-c2nc3c4c(nc(OC[C@@]56CCN5CC(F)(F)C6)nc4c2F)N2C[C@H]4CC[C@H](N4)[C@H]2[C@H](C(F)(F)F)O3)c1C(F)(F)F (single isomer, unassigned) [263 (diast. 1)]	789		0.26	6.14			5.49
Cc1c(F)c(N)cc(-c2nc3c4c(nc(OCC56CCN5CC(F)(F)C6)nc4c2F)N2C[C@H]4CC[C@H](N4)[C@H]2[C@H](C(F)(F)F)O3)c1C(F)(F)F (single isomer, unassigned) [263 (diast. 2)]	336		0.53	15.4			15.4
Cc1cc(N)c(F)c(-c2nc3c4c(ncnc4c2Cl)N2C[C@H]4CC[C@H](N4)[C@H]2[C@H](C)O3)c1C(F)(F)F (single isomer, unassigned) [Compound 95]		3570			247	6700	
Cc1cc(N)c(Cl)c(-c2nc3c4c(nc(OC[C@@]56CCCN5C[C@H](F)C6)nc4c2Cl)N2C[C@H]4CC[C@H](N4)[C@H]2[C@H](C)O3)c1C(F)(F)F (single isomer, unassigned) [Compound 240 (atrop. 1)]			44.9		594	6480	1080
Cc1cc(N)c(Cl)c(-c2nc3c4c(nc(OC[C@@]56CCCN5C[C@H](F)C6)nc4c2Cl)N2C[C@H]4CC[C@H](N4)[C@H]2[C@H](C)O3)c1C(F)(F)F (single isomer, unassigned) [Compound 240 (atrop. 2)]			0.14		1.88	1060	15.1
